The target in the assay is T1, h5-HT5A receptor (Homo sapiens, UniProt P47898).
T1 construct: expressed in transfected cells
In words: h5-HT5A-[3H]5-CT binding assay. The note with it: membranes of HEK293 cells expressing h5-HT5A; 2.5 nM [3H]5-CT; read-out: Binding affinity 5-HT5A (Ki). The method, then:
1. h5-HT5A-[^3H]5-CT Binding Assay
Membranes of HEK293 cells which permanently express the h5-HT5A receptor gene were incubated in 100 mM tris-HCl buffer (pH 7.7) containing 1 mM EDTA, in the presence of 2.5 nM [^3H]5-CT (total volume 600 μL). The total binding is defined as the binding that is observed when the membranes are incubated in the presence of only the radioligand. The inhibition induced by the compound is determined by incubation of cell membranes in the presence of the radioligand and various concentrations of the compound of interest. Nonspecific binding is defined as the [^3H]5-CT binding obtained by incubation of the membranes, the same as for the total binding, but in the presence of 10 μM methiothepine. Following incubation for 75 min at 30° C., the membrane suspension was filtered through a GF/B-Filter coated with 0.03% PEI, using a Skatron® harvesting system. The residual radioactivity in the filter was quantified by liquid scintillation counting.
Various concentrations of the test substances were used in both assays, and the Ki or IC50 values were determined.

Each structure is given as a SMILES string. Counter-ions that a name gives are not always drawn.

Broadly, the Ki is the equilibrium dissociation constant of an inhibitor or competing ligand from its target.

T1 sequence (P47898 whole entry): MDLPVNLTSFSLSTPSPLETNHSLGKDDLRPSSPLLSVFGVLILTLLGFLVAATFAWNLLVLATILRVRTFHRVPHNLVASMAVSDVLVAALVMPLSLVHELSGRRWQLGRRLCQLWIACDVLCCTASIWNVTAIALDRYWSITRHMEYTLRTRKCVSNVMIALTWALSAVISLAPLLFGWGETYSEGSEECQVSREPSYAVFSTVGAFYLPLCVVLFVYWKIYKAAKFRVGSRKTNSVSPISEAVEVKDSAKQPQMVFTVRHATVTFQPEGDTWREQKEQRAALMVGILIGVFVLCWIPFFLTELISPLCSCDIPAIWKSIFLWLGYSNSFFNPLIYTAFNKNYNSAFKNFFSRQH

For `COc1ccccc1Cn1cc(-c2ccc(Br)cc2)nc1N` [Example 1, 4-(4-Bromophenyl)-1-(2-methoxybenzyl)-1H-imidazole-2-ylamine], the inhibition constant (Ki) is less than 600 nM.
Under `COc1ccccc1Cn1cc(-c2ccc([N+](=O)[O-])cc2)nc1N` [Example 2, 1-(2-Methoxybenzyl)-4-(4-nitrophenyl)-1H-imidazole-2-ylamine] stands less than 600 nM.
Turning to `COc1ccccc1Cc1nc(-c2ccccc2)[nH]c1N` [Example 3, 5-(2-Methoxybenzyl)-2-phenyl-3H-imidazole-4-ylamine], the Ki was less than 600 nM.
Under `COc1ccccc1Cc1cn(-c2ccccc2)nc1N` [Example 4, 4-(2-Methoxybenzyl)-1-phenyl-1H-pyrazole-3-ylamine] stands greater than 600 nM.
Under `COc1ccccc1Cn1nc(-c2ccccc2)nc1N` [Example 5, 2-(2-Methoxybenzyl)-5-phenyl-4H-[1,2,4]triazole-3-ylamine] stands greater than 600 nM.
The value for `COc1ccc(-n2cc(Cc3ccccc3OC)c(N)n2)cc1` [Example 6, 4-(2-Methoxybenzyl)-1-(4-methoxyphenyl)-1H-pyrazole-3-ylamine] was greater than 600 nM; that for `COc1ccccc1Cc1cn(-c2ccc(F)cc2)nc1N` [Example 7, 1-(4-Fluorophenyl)-4-(2-methoxybenzyl)-1H-pyrazole-3-ylamine] was greater than 600 nM; that for `COc1cccc(OC)c1Cn1cc(-c2ccccc2)nc1N` [Example 8, 1-(2,6-Dimethoxybenzyl)-4-phenyl-1H-imidazole-2-ylamine hydrochloride] was less than 600 nM.
`COc1ccccc1Cn1cc(-c2ccccc2)nc1NC(C)=O` [Example 9, N-[1-(2-Methoxybenzyl)-4-phenyl-1H-imidazole-2-yl]acetamide]: the Ki was greater than 600 nM.
The value for `COc1ccccc1Cn1cc(-c2ccccc2)nc1N` [Example 10, 1-(2-Methoxybenzyl)-4-phenyl-1H-imidazole-2-ylamine hydrochloride] was less than 600 nM.
Under `COc1ccccc1Cn1cc(C(C)(C)C)nc1N` [Example 11, 4-tert-Butyl-1-(2-methoxybenzyl)-1H-imidazole-2-ylamine] stands greater than 600 nM; under `COc1ccccc1Cn1cc(-c2ccc(F)cc2)nc1N` [Example 12, 4-(4-Fluorophenyl)-1-(2-methoxybenzyl)-1H-imidazole-2-ylamine], less than 600 nM.
Under `COc1ccccc1Cn1cc(-c2cccs2)nc1N` [Example 13, 1-(2-Methoxybenzyl)-4-thiophene-2-yl-1H-imidazole-2-ylamine] stands less than 600 nM.
In the case of `COc1ccccc1Cn1c(N)nc(-c2ccccc2)c1C` [Example 14, 1-(2-Methoxybenzyl)-5-methyl-4-phenyl-1H-imidazole-2-ylamine], the Ki was less than 600 nM.
Consider `COc1ccccc1Cn1cc(-c2ccco2)nc1N` [Example 15, 4-Furan-2-yl-1-(2-methoxybenzyl)-1H-imidazole-2-ylamine hydrochloride], for which the Ki was less than 600 nM.
The value for `COc1ccccc1Cn1cc(-c2ccc3ccccc3c2)nc1N` [Example 16, 1-(2-Methoxybenzyl)-4-naphthalene-2-yl-1H-imidazole-2-ylamine hydrochloride] was less than 600 nM.
The value for `COc1ccccc1Cn1cc(-c2csc3ccccc23)nc1N` [Example 17, 4-Benzo[b]thiophene-3-yl-1-(2-methoxybenzyl)-1H-imidazole-2-ylamine hydrochloride] was less than 600 nM.
Turning to `COc1cccc(OC)c1Cn1cc(-c2ccc(F)cc2)nc1N` [Example 18, 1-(2,6-Dimethoxybenzyl)-4-(4-fluorophenyl)-1H-imidazole-2-ylamine], the Ki is less than 600 nM.
On to `COc1cccc(OC)c1Cn1cc(-c2cccs2)nc1N` [Example 19, 1-(2,6-Dimethoxybenzyl)-4-thiophene-2-yl-1H-imidazole-2-ylamine], for which the Ki is less than 600 nM.
The value for `COc1ccccc1Cn1cc(-c2ccsc2)nc1N` [Example 20, 1-(2-Methoxybenzyl)-4-thiophene-3-yl-1H-imidazole-2-ylamine hydrochloride] was less than 600 nM.
The value for `CCOC(=O)c1cn(Cc2ccccc2OC)c(N)n1` [Example 21, 2-Amino-1-(2-methoxybenzyl)-1H-imidazole-4-carboxylic acid ethyl ester] was greater than 600 nM; that for `COc1ccccc1Cn1cc(-c2ccc(OC(F)(F)F)cc2)nc1N` [Example 22, 1-(2-Methoxybenzyl)-4-(4-trifluoromethoxyphenyl)-1H-imidazole-2-ylamine] was less than 600 nM; that for `COc1cccc(-c2cn(Cc3ccccc3OC)c(N)n2)c1` [Example 23, 1-(2-Methoxybenzyl)-4-(3-methoxyphenyl)-1H-imidazole-2-ylamine] was less than 600 nM.
Under `COc1ccccc1Cn1cc(C23CC4CC(CC(C4)C2)C3)nc1N` [Example 24, 4-Adamantane-1-yl-1-(2-methoxybenzyl)-1H-imidazole-2-ylamine] stands less than 600 nM; under `COc1cccc(OC)c1Cn1cc(-c2ccc(C#N)cc2)nc1N` [Example 25, 4-[2-Amino-1-(2,6-dimethoxybenzyl)-1H-imidazole-4-yl]benzonitrile hydrochloride], less than 600 nM.
On to `COc1ccccc1-c1cn(Cc2c(OC)cccc2OC)c(N)n1` [Example 26, 1-(2,6-Dimethoxybenzyl)-4-(2-methoxyphenyl)-1H-imidazole-2-ylamine hydrochloride], for which the inhibitory constant (Ki) is less than 600 nM.
`COc1ccccc1Cn1cc(-c2ccc(C)cc2)nc1N` [Example 27, 1-(2-Methoxybenzyl)-4-p-tolyl-1H-imidazole-2-ylamine]: the Ki was less than 600 nM.
Regarding `COc1cccc(Cl)c1Cn1cc(-c2ccsc2)nc1N` [Example 28, 1-(2-Chloro-6-methoxybenzyl)-4-thiophene-3-yl-1H-imidazole-2-ylamine], the Ki is less than 600 nM.
As to `COc1cccc(Cl)c1Cn1cc(-c2ccc(OC(F)(F)F)cc2)nc1N` [Example 29, 1-(2-Chloro-6-methoxybenzyl)-4-(4-trifluoromethoxyphenyl)-1H-imidazole-2-ylamine], the Ki was less than 600 nM.
For the compound `CCOC(=O)c1cc(-c2cn(Cc3ccccc3OC)c(N)n2)on1` [Example 30, 5-[2-Amino-1-(2-methoxybenzyl)-1H-imidazole-4-yl]isoxazole-3-carboxylic acid ethyl ester], the Ki is greater than 600 nM.
The value for `COc1cccc(F)c1Cn1cc(-c2ccsc2)nc1N` [Example 31, 1-(2-Fluoro-6-methoxybenzyl)-4-thiophene-3-yl-1H-imidazole-2-ylamine] was less than 600 nM.
For `COc1ccc(-c2cn(Cc3c(Cl)cccc3OC)c(N)n2)cc1` [Example 32, 1-(2-Chloro-6-methoxybenzyl)-4-(4-methoxyphenyl)-1H-imidazole-2-ylamine], the inhibition constant Ki was less than 600 nM.
The value for `COc1cccc(F)c1Cn1cc(-c2ccc(C#N)cc2)nc1N` [Example 33, 4-[2-Amino-1-(2-fluoro-6-methoxybenzyl)-1H-imidazole-4-yl]benzonitrile] was less than 600 nM; that for `COc1cccc(Cl)c1Cn1cc(-c2ccc(Cl)cc2)nc1N` [Example 34, 1-(2-Chloro-6-methoxybenzyl)-4-(4-chlorophenyl)-1H-imidazole-2-ylamine] was less than 600 nM; that for `COc1ccccc1Cn1cc(-c2ccc(Cl)cc2Cl)nc1N` [Example 35, 4-(2,4-Dichlorophenyl)-1-(2-methoxybenzyl)-1H-imidazole-2-ylamine hydrochloride] was less than 600 nM.

Source of the values: patent US8921406B2, “5-ring heteroaromatic compounds and their use as binding partners for 5-HT5 receptors” (AbbVie Deutschland GmbH & Co. KG, priority 2005, dated 2014).
